Measured values reported in US6737383B1, “Herbicidal oxadiazolidines” (priority 1999, dated 2004).

How the values were obtained:
wheat = experiment: Test B pre/postemergence wheat; assay type: in vivo, Triticum aestivum; settings: for Wheat plant response rating (0 to 10 scale): 0 is no effect; for Plant response rating, Wheat: Rate 250 g/ha
Procedure, shortened: (§1)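 Herbicidal effect was estimated by eye on a ten-point control scale after plants spent twelve to sixteen days in a greenhouse following soil or foliar treatment. Foliar sprays targeted plants at one to four leaves; all doses were formulated in a non-phytotoxic solvent with surfactant.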

corn = experiment: Test B pre/postemergence corn; assay type: in vivo, Zea mays
Procedure, shortened: as §1

giant foxtail = experiment: Test B pre/postemergence giant foxtail; assay type: in vivo, Setaria faberii
Procedure, shortened: as §1

cocklebur = experiment: Test B pre/postemergence cocklebur; assay type: in vivo, Xanthium strumarium
Procedure, shortened: as §1

surinam grass = experiment: Test B pre/postemergence surinam grass; assay type: in vivo, Brachiaria decumbens
Procedure, shortened: as §1

wild oat = experiment: Test B pre/postemergence wild oat; assay type: in vivo, Avena fatua; settings: for Wild oats plant response rating (0 to 10 scale): 0 is no effect
Procedure, shortened: as §1

morningglory = experiment: Test B pre/postemergence morningglory; assay type: in vivo, Ipomoea hederacea
Procedure, shortened: as §1

velvetleaf = experiment: Test B pre/postemergence velvetleaf; assay type: in vivo, Abutilon theophrasti; settings: for Velvetleaf plant response rating (0 to 10 scale): 0 is no effect
Procedure, shortened: as §1

bedstraw = experiment: Test B pre/postemergence bedstraw; assay type: in vivo, Galium aparine
Procedure, shortened: as §1

crabgrass = experiment: Test B pre/postemergence crabgrass; assay type: in vivo, Digitaria sanguinalis
Procedure, shortened: as §1

soybean = experiment: Test B pre/postemergence soybean; assay type: in vivo, Glycine max
Procedure, shortened: as §1

pigweed = experiment: Test B pre/postemergence pigweed; assay type: in vivo, Amaranthus retroflexus
Procedure, shortened: as §1

blackgrass = experiment: Test B pre/postemergence blackgrass; assay type: in vivo, Alopecurus myosuroides
Procedure, shortened: as §1

[1] = Postemergence, Rate 62 g/ha, scale 0 to 10, 0 is no effect, 10 is complete control
[2] = Postemergence, Rate 125 g/ha, scale of 0 to 10 where 0 is no effect and 10 is complete control
[3] = Preemergence, Rate 62 g/ha, scale 0 to 10 (0 no effect, 10 complete control)
[4] = Preemergence, Rate 125 g/ha, 10 is complete control
[5] = Preemergence, Rate 500 g/ha, scale 0 (no effect) to 10 (complete control)
[6] = Postemergence, scale 0 to 10, 0 is no effect, 10 is complete control
[7] = Rate 500 g/ha, Postemergence, scale 0 to 10, 0 no effect, 10 complete control
[8] = Postemergence, Rate 250 g/ha, scale 0 to 10, 0 no effect, 10 complete control
[9] = Preemergence, Rate 125 g/ha, scale 0 to 10 (0 no effect, 10 complete control)
[10] = Preemergence, Rate 250 g/ha, scale of 0 to 10 where 0 is no effect and 10 is complete control
[11] = Rate 500 g/ha, Postemergence, scale of 0 to 10 where 0 is no effect and 10 is complete control
[12] = Rate 250 g/ha, Postemergence, scale 0 to 10, 0 is no effect, 10 is complete control
[13] = Preemergence, Rate 500 g/ha, scale 0 to 10 (0 no effect, 10 complete control)
[14] = Rate 62 g/ha, Postemergence, scale of 0 to 10 where 0 is no effect and 10 is complete control
[15] = Rate 500 g/ha, Postemergence, scale 0 to 10
[16] = Preemergence, Rate 125 g/ha, 0 is no effect, 10 is complete control
[17] = Preemergence, Rate 250 g/ha, scale 0 to 10, 0 is no effect, 10 is complete control

CCCn1c(=O)on(C(=O)N(c2ccc(F)cc2)C(C)C)c1=O [Compound 91]
Wheat plant response rating (wheat; [1]): 1
Wheat plant response rating (wheat; [2]): 1
Wheat plant response rating (wheat; [3]): 3
Wheat plant response rating (0 to 10 scale) (wheat; [4]): 4
Plant response rating, Wheat (wheat; Preemergence, scale of 0 to 10 where 0 is no effect and 10 is complete control): 4
Wheat plant response rating (wheat; [5]): 6
Plant response rating, Wheat (wheat; [6]): 4
Wheat plant response rating (wheat; [7]): 6
Corn plant response rating (corn; [1]): 2
Corn plant response rating (corn; [2]): 2
Corn plant response rating (corn; [8]): 3
Corn plant response rating (corn; [3]): 3
Plant response rating, Corn (corn; [9]): 6
Plant response rating, Corn (corn; [10]): 8
Corn plant response rating (corn; [5]): 9
Corn plant response rating (corn; [7]): 5
Giant foxtail plant response rating (giant foxtail; [1]): 8
Giant foxtail plant response rating (giant foxtail; [2]): 8
Giant foxtail plant response rating (giant foxtail; [8]): 8
Giant foxtail plant response rating (giant foxtail; [3]): 10
Plant response rating, Giant foxtail (giant foxtail; [9]): 10
Plant response rating, Giant foxtail (giant foxtail; [10]): 10
Giant foxtail plant response rating (giant foxtail; [5]): 10
Giant foxtail plant response rating (giant foxtail; [7]): 9
Cocklebur plant response rating (cocklebur; [1]): 3
Cocklebur plant response rating (cocklebur; [2]): 3
Cocklebur plant response rating (cocklebur; [8]): 4
Cocklebur plant response rating (cocklebur; [3]): 0
Plant response rating, Cocklebur (cocklebur; [9]): 0
Cocklebur plant response rating (cocklebur; [5]): 3
Cocklebur plant response rating (cocklebur; [7]): 4
B. signalgrass plant response rating (surinam grass; [1]): 4
B. signalgrass plant response rating (surinam grass; [8]): 8
B. signalgrass plant response rating (surinam grass; [3]): 7
Plant response rating, B. signalgrass (surinam grass; [9]): 10
Plant response rating, B. signalgrass (surinam grass; [10]): 10
B. signalgrass plant response rating (surinam grass; [5]): 10
B. signalgrass plant response rating (surinam grass; Rate 125 g/ha, Postemergence, scale 0 to 10, 0 no effect, 10 complete control): 4
B. signalgrass plant response rating (surinam grass; [11]): 8
Wild oats plant response rating (wild oat; [1]): 1
Wild oats plant response rating (wild oat; [2]): 2
Wild oats plant response rating (wild oat; [3]): 8
Wild oats plant response rating (0 to 10 scale) (wild oat; [4]): 9
Plant response rating, Wild oats (wild oat; [10]): 10
Wild oats plant response rating (wild oat; [5]): 10
Plant response rating, Wild oats (wild oat; [12]): 3
Wild oats plant response rating (wild oat; [7]): 5
Morningglory plant response rating (morningglory; [1]): 7
Morningglory plant response rating (morningglory; [2]): 7
Morningglory plant response rating (morningglory; [8]): 8
Morningglory plant response rating (morningglory; [3]): 0
Plant response rating, Morningglory (morningglory; [9]): 0
Plant response rating, Morningglory (morningglory; [10]): 4
Morningglory plant response rating (morningglory; [5]): 6
Morningglory plant response rating (morningglory; [7]): 9
Velvetleaf plant response rating (velvetleaf; [1]): 0
Velvetleaf plant response rating (velvetleaf; [2]): 0
Velvetleaf plant response rating (velvetleaf; [3]): 6
Velvetleaf plant response rating (0 to 10 scale) (velvetleaf; [4]): 6
Plant response rating, Velvetleaf (velvetleaf; [10]): 7
Velvetleaf plant response rating (velvetleaf; [5]): 8
Plant response rating, Velvetleaf (velvetleaf; [12]): 3
Bedstraw plant response rating (bedstraw; [3]): 0
Plant response rating, Bedstraw (bedstraw; [9]): 1
Plant response rating, Bedstraw (bedstraw; [10]): 5
Bedstraw plant response rating (bedstraw; [5]): 8
Crabgrass plant response rating (crabgrass; [1]): 5
Crabgrass plant response rating (crabgrass; [2]): 9
Crabgrass plant response rating (crabgrass; [8]): 9
Crabgrass plant response rating (crabgrass; [3]): 10
Plant response rating, Crabgrass (crabgrass; [9]): 10
Plant response rating, Crabgrass (crabgrass; [10]): 10
Crabgrass plant response rating (crabgrass; [5]): 10
Crabgrass plant response rating (crabgrass; [7]): 9
Soybean plant response rating (soybean; [1]): 3
Soybean plant response rating (soybean; [2]): 3
Soybean plant response rating (soybean; [3]): 0
Plant response rating, Soybean (soybean; [9]): 0
Plant response rating, Soybean (soybean; [10]): 4
Soybean plant response rating (soybean; [5]): 7
Plant response rating, Soybean (soybean; [12]): 4
Soybean plant response rating (soybean; [7]): 5
Redroot pigweed plant response rating (pigweed; [1]): 1
Redroot pigweed plant response rating (pigweed; [2]): 4
Redroot pigweed plant response rating (pigweed; [3]): 6
Plant response rating, Redroot pigweed (pigweed; [9]): 9
Plant response rating, Redroot pigweed (pigweed; [10]): 10
Redroot pigweed plant response rating (pigweed; [5]): 10
Plant response rating, Redroot pigweed (pigweed; [12]): 6
Redroot pigweed plant response rating (pigweed; [7]): 8
Blackgrass plant response rating (blackgrass; [1]): 8
Blackgrass plant response rating (blackgrass; [2]): 8
Blackgrass plant response rating (blackgrass; [8]): 8
Blackgrass plant response rating (blackgrass; [3]): 10
Plant response rating, Blackgrass (blackgrass; [9]): 10
Plant response rating, Blackgrass (blackgrass; [10]): 10
Blackgrass plant response rating (blackgrass; [5]): 10
Blackgrass plant response rating (blackgrass; [7]): 8

CCCn1c(=O)on(C(=O)N(c2ccc(F)cc2F)C(C)C)c1=O [Compound 130]
Wheat plant response rating (wheat; [2]): 1
Wheat plant response rating (wheat; [3]): 2
Wheat plant response rating (0 to 10 scale) (wheat; [4]): 3
Wheat plant response rating (wheat; [13]): 4
Wheat plant response rating (wheat; [14]): 0
Plant response rating, Wheat (wheat; [6]): 3
Wheat plant response rating (wheat; [15]): 8
Corn plant response rating (corn; [2]): 0
Corn plant response rating (corn; [3]): 3
Corn plant response rating (0 to 10 scale) (corn; [16]): 3
Corn plant response rating (corn; [17]): 6
Corn plant response rating (corn; [13]): 6
Corn plant response rating (corn; [14]): 0
Plant response rating, Corn (corn; [12]): 2
Corn plant response rating (corn; [15]): 3
Giant foxtail plant response rating (giant foxtail; [2]): 9
Giant foxtail plant response rating (giant foxtail; [3]): 7
Giant foxtail plant response rating (0 to 10 scale) (giant foxtail; [16]): 9
Giant foxtail plant response rating (giant foxtail; [17]): 10
Giant foxtail plant response rating (giant foxtail; [13]): 10
Giant foxtail plant response rating (giant foxtail; [14]): 8
Plant response rating, Giant foxtail (giant foxtail; [12]): 9
Giant foxtail plant response rating (giant foxtail; [15]): 9
Cocklebur plant response rating (cocklebur; [2]): 0
Cocklebur plant response rating (cocklebur; [3]): 0
Cocklebur plant response rating (0 to 10 scale) (cocklebur; [16]): 0
Cocklebur plant response rating (cocklebur; [17]): 0
Cocklebur plant response rating (cocklebur; [13]): 0
Cocklebur plant response rating (cocklebur; [14]): 0
Plant response rating, Cocklebur (cocklebur; [12]): 0
Cocklebur plant response rating (cocklebur; [15]): 3
B. signalgrass plant response rating (surinam grass; [2]): 2
B. signalgrass plant response rating (surinam grass; [3]): 6
B. signalgrass plant response rating (0 to 10 scale) (surinam grass; [16]): 9
B. signalgrass plant response rating (surinam grass; [17]): 9
B. signalgrass plant response rating (surinam grass; [13]): 9
B. signalgrass plant response rating (surinam grass; [14]): 1
Plant response rating, B. signalgrass (surinam grass; [12]): 7
B. signalgrass plant response rating (surinam grass; [11]): 8
Wild oats plant response rating (wild oat; [2]): 2
Wild oats plant response rating (wild oat; [3]): 7
Wild oats plant response rating (0 to 10 scale) (wild oat; [4]): 8
Wild oats plant response rating (wild oat; [17]): 10
Wild oats plant response rating (wild oat; [13]): 10
Wild oats plant response rating (wild oat; [14]): 0
Plant response rating, Wild oats (wild oat; [12]): 5
Wild oats plant response rating (wild oat; [15]): 8
Morningglory plant response rating (morningglory; [2]): 2
Morningglory plant response rating (morningglory; [3]): 0
Morningglory plant response rating (0 to 10 scale) (morningglory; [16]): 0
Morningglory plant response rating (morningglory; [17]): 3
Morningglory plant response rating (morningglory; [13]): 4
Morningglory plant response rating (morningglory; [14]): 2
Plant response rating, Morningglory (morningglory; [12]): 2
Morningglory plant response rating (morningglory; [15]): 3
Velvetleaf plant response rating (velvetleaf; [2]): 3
Velvetleaf plant response rating (velvetleaf; [3]): 5
Velvetleaf plant response rating (0 to 10 scale) (velvetleaf; [4]): 8
Velvetleaf plant response rating (velvetleaf; [17]): 8
Velvetleaf plant response rating (velvetleaf; [13]): 10
Velvetleaf plant response rating (velvetleaf; [14]): 0
Plant response rating, Velvetleaf (velvetleaf; [12]): 5
Velvetleaf plant response rating (velvetleaf; [15]): 5
Bedstraw plant response rating (bedstraw; [3]): 0
Bedstraw plant response rating (0 to 10 scale) (bedstraw; [16]): 0
Bedstraw plant response rating (bedstraw; [17]): 2
Bedstraw plant response rating (bedstraw; [13]): 10
Bedstraw plant response rating (bedstraw; [14]): 0
Plant response rating, Bedstraw (bedstraw; [12]): 6
Bedstraw plant response rating (bedstraw; [7]): 8
Crabgrass plant response rating (crabgrass; [2]): 9
Crabgrass plant response rating (crabgrass; [3]): 6
Crabgrass plant response rating (0 to 10 scale) (crabgrass; [16]): 9
Crabgrass plant response rating (crabgrass; [17]): 9
Crabgrass plant response rating (crabgrass; [13]): 10
Crabgrass plant response rating (crabgrass; [14]): 5
Plant response rating, Crabgrass (crabgrass; [12]): 9
Crabgrass plant response rating (crabgrass; [15]): 9
Soybean plant response rating (soybean; [2]): 2
Soybean plant response rating (soybean; [3]): 0
Soybean plant response rating (0 to 10 scale) (soybean; [16]): 0
Soybean plant response rating (soybean; [17]): 3
Soybean plant response rating (soybean; [13]): 4
Soybean plant response rating (soybean; [14]): 1
Plant response rating, Soybean (soybean; [12]): 3
Soybean plant response rating (soybean; [15]): 5
Redroot pigweed plant response rating (pigweed; [2]): 3
Redroot pigweed plant response rating (pigweed; [3]): 6
Redroot pigweed plant response rating (0 to 10 scale) (pigweed; [16]): 10
Redroot pigweed plant response rating (pigweed; [17]): 10
Redroot pigweed plant response rating (pigweed; [13]): 10
Redroot pigweed plant response rating (pigweed; [14]): 0
Plant response rating, Redroot pigweed (pigweed; [12]): 3
Redroot pigweed plant response rating (pigweed; [15]): 6
Blackgrass plant response rating (blackgrass; [2]): 5
Blackgrass plant response rating (blackgrass; [3]): 5
Blackgrass plant response rating (0 to 10 scale) (blackgrass; [16]): 9
Blackgrass plant response rating (blackgrass; [17]): 9
Blackgrass plant response rating (blackgrass; [13]): 10
Blackgrass plant response rating (blackgrass; [14]): 3
Plant response rating, Blackgrass (blackgrass; [12]): 7
Blackgrass plant response rating (blackgrass; [15]): 8
